molecular target: TNFα (Homo sapiens (Human), UniProt P01375); test: TNF induced HEK-Blue assay; assay type: cell-based; details: TNFα 0.5 ng/ml; HEK-Blue-CD40L cells, NF-κB-driven secreted alkaline phosphatase reporter; 18 h
Protocol: TNF or CD40L-induced HEK-Blue Assay Test compounds serially diluted in DMSO were plated in an assay plate (Labcyte, Cat. #LP-0200) at final concentrations ranging from 0.004 μM to 25μM. TNFα (final concentration 0.5 ng/ml) or CD4OL (final concentration 30 ng/ml) in assay buffer [DMEM, 4.5 g/l glucose (Gibco, Cat. 21063-029), 10% FBS (Sigma, F4135), 1% Penicillin-Streptomycin (Gibco, Cat. 15140-122), 1% Anti-Anti (Gibco, Cat. 15240-112) and 2 mM L-glutamine (Gibco, Cat. 25030-081)] was then added to the assay plate. After a 30 minute pre-incubation at 37° C. and 5% CO2, HEK-Blue-CD40L cells (InvivoGen, Cat. Code hkb-cd40) containing a NF-κB-driven secreted alkaline phosphatase reporter gene were seeded into the assay plate at a density of 20,000 cells per well. This plate was then incubated for 18 h at 37° C. and 5% CO2. Secreted alkaline phosphatase expression was measured using QUANTI-Blue (InvivoGen, Cat. Code rep-qb1) according to manufacturer's specifications and the assay plate was read on a PerkinElmer Envision at 620 nm. Inhibition data for the test compound over a range of concentrations was plotted as percentage inhibition of the test compound (100%=maximum inhibition). IC50 values were determined after correcting for background [(sample read−mean of low control)/(mean of high control−mean of low control)] where by the low control is DMSO without stimulation and high control is DMSO with stimulation. The IC50 is defined as the concentration of test compound which produces 50% inhibition and was quantified using the 4 parameter logistic equation to fit the data.

Sequence of TNFα (P01375 77-233): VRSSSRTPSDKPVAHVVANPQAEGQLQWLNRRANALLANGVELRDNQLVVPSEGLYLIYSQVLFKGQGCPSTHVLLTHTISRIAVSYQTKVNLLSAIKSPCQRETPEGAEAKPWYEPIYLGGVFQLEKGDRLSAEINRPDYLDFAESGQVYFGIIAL

IC50 [µM]	Compound
1 to 10	CC(C)(O)c1ncc(-c2ccc3nc4c(n3n2)C(c2ccccc2OC(F)F)NCC4O)cn1 (stereo not drawn) [Example 17, 9-(2-(difluoromethoxy)phenyl)-2-(2-(2-hydroxypropan-2-yl)pyrimidin-5-yl)-6,7,8,9-tetrahydropyrido[4′,3′:4,5]imidazo[1,2-b]pyridazin-6-ol]
< 1	CCCOc1ccc(-c2ccc3nc4c(n3n2)[C@@H](c2ccccc2OC(F)F)NC[C@H]4O)cc1 (racemic) [Example 33, (+/−)-cis-9-(2-(difluoromethoxy)phenyl)-2-(4-propoxyphenyl)-6,7,8,9-tetrahydropyrido [4′,3′:4,5]imidazo[1,2-b]pyridazin-6-ol]
1 to 10	COc1ccccc1COc1ccc(-c2ccc3nc4c(n3n2)[C@@H](c2ccccc2OC(F)F)NC[C@H]4O)cc1 (racemic) [Example 37, (+/−)-cis-9-(2-(difluoromethoxy)phenyl)-2-(4-((2-methoxybenzyl)oxy)phenyl)-6,7,8,9-tetrahydropyrido[4′,3′:4,5]imidazo[1,2-b]pyridazin-6-ol]
1 to 10	(+/−)-cis-9-(2-(difluoromethoxy)phenyl)-2-(4-morpholinophenyl)-6,7,8,9-tetrahydropyrido[4′,3′:4,5]imidazo[1,2-b]pyridazin-6-ol [Example 45]
< 1	CC(C)(O)c1ccc(-c2ccc3nc4c(n3n2)C(c2ccccc2OC(F)(F)F)NCC4O)cc1 (stereo not drawn) [Example 26, 2-(4-(2-hydroxypropan-2-yl)phenyl)-9-(2-(trifluoromethoxy)phenyl)-6,7,8,9-tetrahydropyrido [4′,3′:4,5]imidazo[1,2-b]pyridazin-6-ol]
1 to 10	CC(C)(O)c1ccc(-c2ccc3nc4c(n3n2)[C@@H](c2ccccc2OC(F)F)NC[C@@H]4O)cc1 [Example 15, trans-(6S,9R)-9-(2-(difluoromethoxy)phenyl)-2-(4-(2-hydroxypropan-2-yl)phenyl)-6,7,8,9-tetrahydropyrido [4′,3′:4,5]imidazo[1,2-b]pyridazin-6-ol]
1 to 10	CC(C)(O)c1ncc(-c2ccc3nc4c(n3n2)C(c2ccccc2OC(F)F)NCC4)cn1 (racemic) [Example 3, (+/−)-2-(5-(9-(2-(Difluoromethoxy)phenyl)-6,7,8,9-tetrahydropyrido[4′,3′:4,5]imidazo[1,2-b]pyridazin-2-yl)pyrimidin-2-yl)propan-2-ol]
1 to 10	COc1ccc(-c2ccc3nc4c(n3n2)C(c2ccccc2OC(F)F)NCC4O)cn1 [Example 16, cis-(6R,9S)-9-(2-(difluoromethoxy)phenyl)-2-(6-methoxypyridin-3-yl)-6,7,8,9-tetrahydropyrido[4′,3′:4,5]imidazo[1,2-b]pyridazin-6-ol]
1 to 10	CC(C)(O)COc1ccc(-c2ccc3nc4c(n3n2)[C@@H](c2ccccc2OC(F)F)NC[C@H]4O)cc1 (racemic) [Example 29, (+/−)-cis-9-(2-(difluoromethoxy)phenyl)-2-(4-(2-hydroxy-2-methylpropoxy)phenyl)-6,7,8,9-tetrahydropyrido[4′,3′:4,5]imidazo[1,2-b]pyridazin-6-ol]
10 to 25	COC1CN(C(=O)c2ccc(-c3ccc4nc5c(n4n3)C(c3ccccc3OC(F)F)NCC5O)cc2)C1 (stereo not drawn) [Example 18, (4-(9-(2-(difluoromethoxy)phenyl)-6-hydroxy-6,7,8,9-tetrahydropyrido[4′,3′:4,5]imidazo[1,2-b]pyridazin-2-yl)phenyl)(3-methoxyazetidin-1-yl)methanone]
< 1	CC(C)(O)c1ccc(-c2ccc3nc4c(n3n2)[C@H](c2ccccc2OC(F)F)OC[C@@H]4O)cc1 (relative stereo) [Example 58, Cis-9-(2-(difluoromethoxy)phenyl)-2-(4-(2-hydroxypropan-2-yl)phenyl)-6,9-dihydro-7H-pyrano[4′,3′:4,5]imidazo[1,2-b]pyridazin-6-ol]
1 to 10	CC(C)(O)c1ccc(-c2ccc3nc4c(n3n2)[C@H](c2ccccc2OC(F)F)OC[C@H]4O)cc1 (racemic) [Example 57, Rac-(6S,9S)-9-(2-(difluoromethoxy)phenyl)-2-(4-(2-hydroxypropan-2-yl)phenyl)-7,9-dihydro-6H-pyrano[4′,3′:4,5]imidazo[1,2-b]pyridazin-6-ol]
< 1	CCc1ccccc1[C@@H]1NC[C@@H](O)c2nc3ccc(-c4ccc(C(C)(C)O)cc4)nn3c21 (racemic) [Example 24, (+/−)-trans-9-(2-ethylphenyl)-2-(4-(2-hydroxypropan-2-yl)phenyl)-6,7,8,9-tetrahydropyrido[4′,3′:4,5]imidazo[1,2-b]pyridazin-6-ol]
< 1	CC(C)(O)c1ccc(-c2ccc3nc4c(n3n2)[C@H](c2ccccc2OC(F)F)NC[C@@H]4O)cc1 (racemic) [Example 4, (+/−)-cis-9-(2-(difluoromethoxy)phenyl)-2-(4-(2-hydroxypropan-2-yl)phenyl)-6,7,8,9-tetrahydropyrido[4′,3′:4,5]imidazo[1,2-b]pyridazin-6-ol]
1 to 10	CS(=O)(=O)c1ccc(-c2ccc3nc4c(n3n2)[C@@H](c2ccccc2OC(F)F)NC[C@H]4O)cc1 (racemic) [Example 41, (+/−)-cis-9-(2-(difluoromethoxy)phenyl)-2-(4-(methylsulfonyl)phenyl)-6,7,8,9-tetrahydropyrido[4′,3′:4,5]imidazo[1,2-b]pyridazin-6-ol]
1 to 10	CC(C)(O)c1ccc(-c2ccc3nc4c(n3n2)[C@H](c2ccccc2OC(F)F)NC[C@H]4O)cc1 [Example 14, trans-(6R,9S)-9-(2-(difluoromethoxy)phenyl)-2-(4-(2-hydroxypropan-2-yl)phenyl)-6,7,8,9-tetrahydropyrido[4′,3′:4,5]imidazo[1,2-b]pyridazin-6-ol]
1 to 10	CCOc1ccc(-c2ccc3nc4c(n3n2)[C@@H](c2ccccc2OC(F)F)NC[C@H]4O)cc1 (racemic) [Example 31, (+/−)-cis-9-(2-(difluoromethoxy)phenyl)-2-(4-ethoxyphenyl)-6,7,8,9-tetrahydropyrido[4′,3′:4,5]imidazo [1,2-b]pyridazin-6-ol]
1 to 10	(+/−)-cis-9-(4-fluoro-2-methylphenyl)-2-(4-(2-hydroxypropan-2-yl)phenyl)-6,7,8,9-tetrahydropyrido [4′,3′:4,5]imidazo[1,2-b]pyridazin-6-ol [Example 43]
1 to 10	COc1cc(F)ccc1[C@@H]1NC[C@@H](O)c2nc3ccc(-c4ccc(C(C)(C)O)cc4)nn3c21 (racemic) [Example 23, (+/−)-trans-9-(4-fluoro-2-methoxyphenyl)-2-(4-(2-hydroxypropan-2-yl)phenyl)-6,7,8,9-tetrahydropyrido[4′,3′:4,5]imidazo[1,2-b]pyridazin-6-ol]
1 to 10	O=C(O)CN1CCN(c2ncc(-c3ccc4nc5c(n4n3)C(c3ccccc3OC(F)F)NCC5O)cn2)CC1 (stereo not drawn) [Example 22, 2-(4-(5-(9-(2-(difluoromethoxy)phenyl)-6-hydroxy-6,7,8,9-tetrahydropyrido [4′,3′:4,5]imidazo[1,2-b]pyridazin-2-yl)pyrimidin-2-yl)piperazin-1-yl)acetic acid]

Compound	IC50 [µM]
CC(C)COc1ccc(-c2ccc3nc4c(n3n2)[C@@H](c2ccccc2OC(F)F)NC[C@H]4O)cc1 (racemic) [Example 27, (+/−)-cis-9-(2-(difluoromethoxy)phenyl)-2-(4-isobutoxyphenyl)-6,7,8,9-tetrahydropyrido[4′,3′:4,5]imidazo[1,2-b]pyridazin-6-ol]	1 to 10

From patent US10308652B2, “Tricyclic heterocyclic compounds useful as inhibitors of TNF” (BRISTOL-MYERS SQUIBB COMPANY, priority 2015, dated 2019)
